# What was measured:
# HMwFabG (ABO12488.2) = biological target: T1, HMwFabG (ABO12488.2) (Acinetobacter baumannii, UniProt A0A219C8F5); test: coenzyme oxidation, absorbance at […] nm; assay type: biochemical; conditions: 200 µM NADH, 500 µM acetoacetyl-CoA, 20 mM HEPES pH 7.4, 125 mM NaCl, 37 °C, 30 min
# T1 construct: gene fabG_9; codon-optimised gene in pMCSG21, E. coli BL21(DE3) pLysS; N-terminal 6-His tag cut by TEV; 463 residues, 48 kDa protomer, homodimer
# T1 sequence (A0A219C8F5 1-463): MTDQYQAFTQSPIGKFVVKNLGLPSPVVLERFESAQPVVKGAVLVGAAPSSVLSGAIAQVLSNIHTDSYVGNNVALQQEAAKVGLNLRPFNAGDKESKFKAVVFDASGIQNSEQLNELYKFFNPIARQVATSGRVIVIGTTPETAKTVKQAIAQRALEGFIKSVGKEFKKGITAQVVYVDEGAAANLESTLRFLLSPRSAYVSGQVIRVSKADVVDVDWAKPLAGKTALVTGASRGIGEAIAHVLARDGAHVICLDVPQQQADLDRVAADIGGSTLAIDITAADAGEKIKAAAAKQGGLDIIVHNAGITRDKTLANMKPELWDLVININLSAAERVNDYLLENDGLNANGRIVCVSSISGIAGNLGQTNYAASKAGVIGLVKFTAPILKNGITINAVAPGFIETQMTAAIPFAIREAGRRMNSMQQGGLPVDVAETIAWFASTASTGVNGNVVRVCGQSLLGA
# FabG (ABO11256.2) [1] = biological target: T2, FabG (ABO11256.2) (Acinetobacter baumannii, UniProt V5VHN7); test: X-ray crystal structure of co-crystal, […] Å; assay type: binding; conditions: co-crystallised at 1:10 protein to coenzyme, 0.1 M Tris pH 8.0, 2 M ammonium sulphate; coenzyme site
# T2 construct: codon-optimised gene in pMCSG21, E. coli BL21(DE3) pLysS; N-terminal 6-His tag cut by TEV; 244 residues, 26 kDa protomer, homotetramer about 100 kDa
# T2 sequence (V5VHN7 1-244): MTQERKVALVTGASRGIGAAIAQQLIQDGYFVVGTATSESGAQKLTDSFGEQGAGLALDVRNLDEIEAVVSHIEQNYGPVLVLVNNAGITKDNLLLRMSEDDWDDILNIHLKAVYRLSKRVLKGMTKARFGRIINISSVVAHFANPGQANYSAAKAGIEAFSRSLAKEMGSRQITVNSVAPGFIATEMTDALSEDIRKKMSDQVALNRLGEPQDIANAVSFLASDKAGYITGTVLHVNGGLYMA
# FabG (ABO11256.2) [2] = biological target: T2, FabG (ABO11256.2); test: coenzyme oxidation, absorbance at […] nm; assay type: biochemical; conditions: 500 µM acetoacetyl-CoA, 200 µM NADPH, 20 mM HEPES pH 7.4, 125 mM NaCl, 37 °C, 30 min
Compound,"coenzyme oxidation, absorbance at 340 nm (HMwFabG (ABO12488.2))","X-ray crystal structure of co-crystal, 1.85 Å (FabG (ABO11256.2) [1])","coenzyme oxidation, absorbance at 340 nm (FabG (ABO11256.2) [2])"
NC(=O)C1=CN([C@@H]2O[C@H](COP(=O)(O)OP(=O)(O)OC[C@H]3O[C@@H](n4cnc5c(N)ncnc54)[C@H](O)[C@@H]3O)[C@@H](O)[C@H]2O)C=CC1 [NADH],Our enzyme assays showed clear preference for NADH as the catalytic coenzyme,–,–
NC(=O)C1=CN([C@@H]2O[C@H](COP(=O)(O)OP(=O)(O)OC[C@H]3O[C@@H](n4cnc5c(N)ncnc54)[C@H](OP(=O)(O)O)[C@@H]3O)[C@@H](O)[C@H]2O)C=CC1 [NADPH],–,strong positive density allowing NADPH to be modelled within each protomer,–
CC(=O)CC(=O)SCCNC(=O)CCNC(=O)[C@H](O)C(C)(C)COP(=O)(O)OP(=O)(O)OC[C@H]1O[C@@H](n2cnc3c(N)ncnc32)[C@H](O)[C@@H]1OP(=O)(O)O [acetoacetyl-CoA],Enzyme activity of HMwFabG with acetoacetyl-CoA,–,"enzyme assays were conducted in the presence of a substrate mimic, acetoacetyl-CoA"

# Source: PMC8007833, “Insights into Acinetobacter baumannii fatty acid synthesis 3-oxoacyl-ACP reductases” (Scientific Reports, 2021)
